# Source: EP0579806B1, “MEDICAMENT FOR THE TREATMENT AND/OR PROPHYLAXIS OF FOLATE METABOLISM DISORDERS” (Kragler, Peter, priority 1992, dated 1993)
# Test: Red blood count and megakaryocyte function before and after therapy in HIV-positive patients
# Assay type: in vivo, Mensch
# Conditions: patients pretreated with a chain terminator, before therapy
# From the text: Folgende Laborparameter wurden vor und nach der Therapie an 23 HIV-positiven Patienten mit verschiedener klinischer Symptomatik bestimmt: • 1. Rotes Blutbild und Megakaryozytenfunktion • 2. Weißes Blutbild und Lymphozytensubpopulation • 3. Lymphozytenstimulation • 4. Proteine • a) Gesamteiweiß • b) Elektrophorese • c) Immunelektrophorese • d) zirkulierende Immunkomplexe (CIC) • 5. B12-Gehalt • a) Serum pg/ml • b) Erythrozyten pg/ml Zellen • c) mononukleäre Zellen pg/ml Zellen • 6. Folat-Gehalt • a) Serum ng/ml • b) Erythrozyten ng/ml Zellen • c) mononukleäre Zellen ng/ml Zellen • 7. HIV (Elisa) in Titerstufen • 8. HIV - Westernblot (P24-core, P55-gag, gP41-env, gP120-env, gP160-env) mit Bewertung der Banden von + bis ++++ • 9. β2-Mikroglobulin korreliert • a) mit der Aktivität der NK-Zellen (ADCC = antibody dependent cellmediated cytotoxicity) • b) mit der Aktivität der CD8- NK-Zellen • 10. Neopterin Zwischenprodukt der Reaktion GPT (Guanosintriphosphat) --> Tetrahydrobiopterin (Hydroxylierung von Phenylalanin, Tyrosin und Tryptophan) Die Bedeutung von Neopterin ist zur Zeit noch Gegenstand wissenschaftlicher Untersuchungen. • 11. Lysozym (Muramidase) Messung der Granulozytenaktivität • 12. Serologie sexuell übertragbarer Krankheiten (STD) […]
smiles,measurement,value
"Cc1cn([C@H]2C[C@H](N=[N+]=[N-])[C@@H](CO)O2)c(=O)[nH]c1=O [AZT, Azidothymidin]","makrozytäre, hyperchrome Anämie (MCV, Hbe erhöht)",noch ausgeprägter
